Series [1] concerns M5076 murine reticulosarcoma. Nature of the series: Antitumour activity (and toxic deaths) against M5076 murine reticulosarcoma transplanted s.c. in mice. Type of series: in vivo, mouse (C75 B1/6 mice). The following applies: for A.U.C. % inhib / T.C. % (median survival time treated/control × 100) / TOX (number of toxic deaths/total number of mice) / TDG (Tumor Growth Delay) (1 g) / LTS (Long Terms Survivors) / Tox (number of toxic deaths/total number of mice) / Tumor free (mice tumor free at the end of the experiments): days 5, 9, 15; for TDG (Tumor Growth Delay) (1 g): time to reach 1 g tumor weight. The protocol: Antitumour activity of compound A1 on M5076.
The antitumour activity of A1, described in Example 13, was tested as follows:
All drug solutions were prepared immediately before use. Treatment was administered i.v. in a volume of 10 ml/Kg body weight at days 5,9 and 15.
Anthracyclines were dissolved in sterile water and the concentration was checked spectrophotometrically.
Lyophylized polymers were dissolved in water to give a starting solution of 25 mg anthracycline equivalent/ml according to the reported concentration,further dilutions were performed in water.
M5076 murine reticulosarcoma was obtained by serial i.m. passage and transplanted (5×10^5 cells/mouse) s.c. in C75 B1/6 mice to evaluate the activity on primary tumor.
Tumor growth was assessed by. caliper measurement, and the tumor weight estimated according to Geran etal., see Cancer Chemother. Rep. 3, 1 (1972).
The antitumor activity was determined in time (days) to reach one gramm tumor weight and is reported as tumor growth delay (TGD).
The median increase in survival time (T/C%) was calculated using the following formula: [formula]
Toxicity was evaluated on the basis of body weight reduction and gross finding main of spleen and liver reduction.
Neurotoxicity is determined as number of mice with lack of motor function. […]
The antitumor activity was tested with the same treatment schedule for 4'-epidoxorubicin.HCl and compound A4.

A short description of series [2]: Single-dose i.v. toxicity in healthy mice (LD10, LD50, therapeutic index). Type of series: in vivo, mouse. The following applies: mouse, in vivo, iv; single dose i.v., healthy C57 B1/F mice, Probit Analysis after 3-week recovery. The protocol: (§1) Toxicity was evaluated in healthy C57B1F mice, treatment i.v., with single doses of 4'-epidoxorubicin.HCl (13.2-16.15-19-20.6-25.2 and 33.2 mg/kg) and compound A4 (50-63-79-100-120-140 mg/kg)
(§2) For the determination of LD10 and LD= in healthy C57 B1F mice the Probit Analysis' after 3-week recovery was used.
(§3) The therapeutic index was calculated using the following formula: [formula]
(§4) Dose effective 50 is the dose causing 50% of tumor growth reduction.

The next series relates to healthy C57B1F mice. The description is as above. The class given is in vivo, mouse. The following applies: for LD10: Probit Analysis after 3-week recovery. The protocol:
as §1, §2, §3, §4

[3] abbreviates: single dose i.v., healthy C57 B1/F mice.
Setting [4] is: Table 2, 4.0 mg/kg (anthracycline equivalent) i.v.
Setting [5] is: Table 2, 5.0 mg/kg (anthracycline equivalent) i.v.
Where [6] appears, read: Table 2, 6.0 mg/kg (anthracycline equivalent) i.v.
Setting [7] is: Table 1, 30.0 mg/kg (anthracycline equivalent) i.v.
The mark [8] stands for this setting: Table 1, 40.0 mg/kg (anthracycline equivalent) i.v.
Setting [9] is: Table 1, 50.0 mg/kg (anthracycline equivalent) i.v.

Counter-ions that a name gives are not always drawn. A value given as a limit tells only on which side of the number the result lay.

We go through six compounds from patent publication US5571785A, “Biologically active compounds” (Farmitalia Carlo Erba S.r.l, priority 1993, dated 1996).

Turning to `COc1cccc2c1C(=O)c1c(O)c3c(c(O)c1C2=O)C[C@@](O)(C(=O)CO)C[C@@H]3O[C@H]1C[C@H](N)[C@@H](O)[C@H](C)O1` [4'-epidoxorubicin.HCl, reference compound], in series [1] (Table 3, 5 mg/kg), the A.U.C. % inhib was determined as 51%, the “T.C. % (median survival time treated/control × 100)” value is listed as 105%, the “TOX (number of toxic deaths/total number of mice)” value is listed as 0/9 and the “TDG (Tumor Growth Delay) (1 g)” value came to 22 days. In series [1] (Table 3, 7.5 mg/kg), the A.U.C. % inhib came to 90%, the “T.C. % (median survival time treated/control × 100)” value came out at 124%, the “TOX (number of toxic deaths/total number of mice)” value was 0/9 and the “TDG (Tumor Growth Delay) (1 g)” value was determined as 34 days. In addition, in series [1] (Table 3, 10 mg/kg), the A.U.C. % inhib was found to be 99%, the “T.C. % (median survival time treated/control × 100)” value stood at 125%, the “TOX (number of toxic deaths/total number of mice)” value is 0/9 and the “TDG (Tumor Growth Delay) (1 g)” value is on record as 40 days. This compound also showed an LD50 at 504 h in series [2] of 21.4 mg/kg. The same compound showed an LD10 with healthy C57B1F mice (setting [3]) of 16.4 mg/kg.
With `CC(=O)[C@]1(O)Cc2c(O)c3c(c(O)c2[C@@H](O[C@H]2C[C@H](N)[C@H](O)[C@H](C)O2)C1)C(=O)c1ccccc1C3=O` [4-demethoxydaunorubicin, reference compound], in series [1] (Table 2, 1.0 mg/kg i.v.), the A.U.C. % inhib is on record as 47%, the “LTS (Long Terms Survivors)” value is given as 0/9, the “T.C. % (median survival time treated/control × 100)” value is listed as 142% and the “Tox (number of toxic deaths/total number of mice)” value is 0/9. Besides, in series [1] (Table 2, 1.0 mg/kg i.v.), the “Tumor free (mice tumor free at the end of the experiments)” value (“Tumor free” below) is listed as 0/9 and the “TDG (Tumor Growth Delay) (1 g)” value amounted to 19 days. In addition, in series [1] (Table 2, 1.5 mg/kg i.v.), the A.U.C. % inhib stood at 80%, the “LTS (Long Terms Survivors)” value was 0/9, the “T.C. % (median survival time treated/control × 100)” value worked out at 160% and the “Tox (number of toxic deaths/total number of mice)” value was 0/9. Moreover, in series [1] (Table 2, 1.5 mg/kg i.v.), the “Tumor free” value is 0/9 and the “TDG (Tumor Growth Delay) (1 g)” value came out at 28 days.
Turning to `COc1cccc2c1C(=O)c1c(O)c3c(c(O)c1C2=O)C[C@@](O)(C(=O)CO)C[C@@H]3O[C@H]1C[C@H](N)[C@H](O)[C@H](C)O1` [doxorubicin, reference compound], in series [1] (Table 1, 7.5 mg/kg i.v.), the A.U.C. % inhib came to 90%, the “LTS (Long Terms Survivors)” value was 0/26, the “Tox (number of toxic deaths/total number of mice)” value is listed as 0/26 and the “Tumor free” value was 0/26. In addition, the “TDG (Tumor Growth Delay) (1 g)” value in series [1] (Table 1, 7.5 mg/kg i.v.) is given as 35 days. Also, in series [1] (Table 1, 10.0 mg/kg i.v.), the A.U.C. % inhib is listed as 100%, the “LTS (Long Terms Survivors)” value is on record as 0/26, the “Tox (number of toxic deaths/total number of mice)” value is reported as 3/26 and the “Tumor free” value was 0/26. Further, in series [1] (Table 1, 10.0 mg/kg i.v.), the “TDG (Tumor Growth Delay) (1 g)” value was 39 days.
On to “Copolymer of 3-methacryloylamino-2-hydroxypropane, 4'-epi-3'-N-(methacryloylglycyl-L-phenylalanyl-L-leuculglycyl)doxorubicin and 1-N-(methacryloylgylcyl)-2-hydrocypropane [A4]”, for which, in series [1] (Table 3, 10 mg/kg), the A.U.C. % inhib turned out to be 100%, the “T.C. % (median survival time treated/control × 100)” value worked out at 190%, the “TOX (number of toxic deaths/total number of mice)” value is 0/9 and the “TDG (Tumor Growth Delay) (1 g)” value was 62 days. In series [1] (Table 3, 20 mg/kg), the A.U.C. % inhib amounted to 100%, the “T.C. % (median survival time treated/control × 100)” value is reported as 219%, the “TOX (number of toxic deaths/total number of mice)” value is recorded as 0/9 and the “TDG (Tumor Growth Delay) (1 g)” value is 62 days. In series [1] (Table 3, 30 mg/kg), the A.U.C. % inhib was determined as 100%, the “T.C. % (median survival time treated/control × 100)” value worked out at 229%, the “TOX (number of toxic deaths/total number of mice)” value is 0/9 and the “TDG (Tumor Growth Delay) (1 g)” value is on record as 71 days. For the same compound, the “Activity against early M5076 murine reticulosarcoma compared with free drug” value in series [1] (versus 4'-epidoxorubicin.HCl, same treatment schedule) is reported as “more active than free drug at all tested doses”. Further, the therapeutic index in the series with healthy C57B1F mice (calculated by formula using dose effective 50 (dose causing 50% of tumor growth reduction)) was 40. For the same compound, the toxicity entry in the series on healthy C57B1F mice (compared with 4'-epidoxorubicin.HCl) is reported as “low toxicity”. In addition, the LD10 with healthy C57B1F mice (setting [3]) was found to be 128.0 mg/kg. The “LD50 (extrapolated value)” value in the series with healthy C57B1F mice (single dose i.v., healthy C57 B1/F mice, Probit Analysis, extrapolated value, 30240 min) was 389 mg/kg.
In the case of “Copolymer of 3-methacryloylamino-2-hyvdroxypropane, 4-demethoxy, 3'-N-(methacrylgylcyl-L-phenylalanyl-L-leucyl glycyl)daunorubicin and N-methacryloylglycine [A3]”, in series [1] (setting [4]), the A.U.C. % inhib is 100%, the “LTS (Long Terms Survivors)” value was 0/10, the “T.C. % (median survival time treated/control × 100)” value is 198% and the “Tox (number of toxic deaths/total number of mice)” value was 0/10. Also, in series [1] (setting [4]), the “Tumor free” value is recorded as 0/10 and the “TDG (Tumor Growth Delay) (1 g)” value worked out at 49 days. Besides, in series [1] (setting [5]), the A.U.C. % inhib is listed as 100%, the “LTS (Long Terms Survivors)” value is on record as 0/10, the “T.C. % (median survival time treated/control × 100)” value is reported as 205% and the “Tox (number of toxic deaths/total number of mice)” value was 0/10. Besides, in series [1] (setting [5]), the “Tumor free” value is 0/10 and the “TDG (Tumor Growth Delay) (1 g)” value came to 50 days. Moreover, in series [1] (setting [6]), the A.U.C. % inhib is 100%, the “LTS (Long Terms Survivors)” value is given as 0/9, the “T.C. % (median survival time treated/control × 100)” value amounted to 212% and the “Tox (number of toxic deaths/total number of mice)” value is listed as 0/9. In addition, in series [1] (setting [6]), the “Tumor free” value is 0/9 and the “TDG (Tumor Growth Delay) (1 g)” value is given as 55 days.
For the compound “Copolymer of 3-methacryloylamino-2hydroxypropane, 3'-N-(methacryloylgly-L-phenlalanyl-L-leucylqlycyl)doxorubicin and N-methacryloylqlycine [A1]”, in series [1] (setting [7]), the A.U.C. % inhib worked out at 100%, the “LTS (Long Terms Survivors)” value is on record as 4/10, the “T.C. % (median survival time treated/control × 100)” value is recorded as 378% and the “Tox (number of toxic deaths/total number of mice)” value is on record as 0/10. For the same compound, in series [1] (setting [7]), the “Tumor free” value is listed as 3/10 and the “TDG (Tumor Growth Delay) (1 g)” value is listed as 80 days. Besides, in series [1] (setting [8]), the A.U.C. % inhib is 100%, the “LTS (Long Terms Survivors)” value is given as 6/10, the “T.C. % (median survival time treated/control × 100)” value is above 369% and the “Tox (number of toxic deaths/total number of mice)” value is 0/10. Further, in series [1] (setting [8]), the “Tumor free” value is reported as 5/10. In addition, in series [1] (setting [9]), the A.U.C. % inhib turned out to be 100%, the “LTS (Long Terms Survivors)” value is on record as 7/10, the “T.C. % (median survival time treated/control × 100)” value is above 369% and the “Tumor free” value was 7/10. Besides, in series [1] (Table 1, 50.0 mg/kg (anthracycline equivalent) i.v., footnote *Neurotoxicity), the “Tox (number of toxic deaths/total number of mice)” value is recorded as 2/10.
